The source made the active and inactive calls. The calls are words filed in the database; no cut-off is given here.
Assays:
[1] = Oral bioavailability in rat at 1 mg/kg; format: ADME, organism-based; conditions: in vivo
[2] = target: T1, Extracellular calcium-sensing receptor (Homo sapiens) (UniProt P41180); experiment: Binding affinity to human CaSR expressed in HEK293 cells after 30 mins in presence of NPS 568 by liquid scintillation counting method; format: cell-based
T1 sequence (whole entry): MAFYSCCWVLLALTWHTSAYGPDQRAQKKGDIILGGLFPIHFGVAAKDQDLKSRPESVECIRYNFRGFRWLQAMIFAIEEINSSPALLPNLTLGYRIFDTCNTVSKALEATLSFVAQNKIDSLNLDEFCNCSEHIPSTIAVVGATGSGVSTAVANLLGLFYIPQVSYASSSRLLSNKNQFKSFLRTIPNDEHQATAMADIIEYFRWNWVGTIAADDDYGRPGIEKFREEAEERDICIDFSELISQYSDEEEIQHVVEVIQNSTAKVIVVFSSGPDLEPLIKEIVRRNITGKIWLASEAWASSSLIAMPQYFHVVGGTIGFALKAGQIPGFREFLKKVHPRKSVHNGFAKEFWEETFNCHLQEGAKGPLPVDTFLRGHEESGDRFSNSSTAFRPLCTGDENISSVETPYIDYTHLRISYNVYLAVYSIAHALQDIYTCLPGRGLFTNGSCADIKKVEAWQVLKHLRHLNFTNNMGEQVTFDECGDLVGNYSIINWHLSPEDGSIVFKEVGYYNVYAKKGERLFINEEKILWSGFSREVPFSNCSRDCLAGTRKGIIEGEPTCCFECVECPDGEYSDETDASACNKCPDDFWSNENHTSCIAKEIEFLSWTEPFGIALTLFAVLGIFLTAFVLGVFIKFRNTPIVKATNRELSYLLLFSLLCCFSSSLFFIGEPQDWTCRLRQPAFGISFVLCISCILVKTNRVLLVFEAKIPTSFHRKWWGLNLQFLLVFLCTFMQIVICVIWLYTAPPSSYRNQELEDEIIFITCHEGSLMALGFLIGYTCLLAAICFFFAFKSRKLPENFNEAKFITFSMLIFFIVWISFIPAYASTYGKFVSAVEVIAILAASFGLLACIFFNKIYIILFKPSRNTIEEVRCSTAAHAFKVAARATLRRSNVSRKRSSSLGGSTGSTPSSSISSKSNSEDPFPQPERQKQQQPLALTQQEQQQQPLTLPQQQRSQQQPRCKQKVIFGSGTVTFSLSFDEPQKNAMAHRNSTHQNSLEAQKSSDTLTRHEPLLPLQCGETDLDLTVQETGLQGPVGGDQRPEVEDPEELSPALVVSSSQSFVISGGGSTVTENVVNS

[3] = Half life in monkey at 0.3 mg/kg, iv; format: ADME, organism-based, Macaca mulatta; conditions: rhesus monkey, in vivo
[4] = AUC (0 to infinity) in rat at 1 mg/kg, po; format: ADME, organism-based; set-up: dose 1 mg/kg, route oral, time infinity; conditions: in vivo
[5] = Initial plasma concentration in rat at 0.3 mg/kg, iv; format: ADME, organism-based
[6] = target: CYP2C19 (Homo sapiens, UniProt P33261); experiment: Inhibition of CYP2C19 (unknown origin); format: ADME
Chain of CYP2C19 (P33261 whole entry): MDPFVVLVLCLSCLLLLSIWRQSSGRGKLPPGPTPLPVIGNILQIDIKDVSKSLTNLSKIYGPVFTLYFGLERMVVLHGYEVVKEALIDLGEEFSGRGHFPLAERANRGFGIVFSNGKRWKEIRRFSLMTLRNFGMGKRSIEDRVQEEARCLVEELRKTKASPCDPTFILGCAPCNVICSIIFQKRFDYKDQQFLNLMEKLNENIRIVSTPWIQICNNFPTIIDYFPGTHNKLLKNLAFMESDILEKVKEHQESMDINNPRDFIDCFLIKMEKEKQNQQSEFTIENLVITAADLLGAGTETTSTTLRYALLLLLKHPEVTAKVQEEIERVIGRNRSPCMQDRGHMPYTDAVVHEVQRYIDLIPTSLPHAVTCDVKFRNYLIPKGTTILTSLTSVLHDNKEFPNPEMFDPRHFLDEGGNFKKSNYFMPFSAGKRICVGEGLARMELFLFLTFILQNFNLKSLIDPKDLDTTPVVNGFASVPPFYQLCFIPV

[7] = target: T2, CYP2B6 (Homo sapiens, UniProt P20813); experiment: Inhibition of CYP2B6 (unknown origin); format: ADME
T2 sequence (P20813 whole entry): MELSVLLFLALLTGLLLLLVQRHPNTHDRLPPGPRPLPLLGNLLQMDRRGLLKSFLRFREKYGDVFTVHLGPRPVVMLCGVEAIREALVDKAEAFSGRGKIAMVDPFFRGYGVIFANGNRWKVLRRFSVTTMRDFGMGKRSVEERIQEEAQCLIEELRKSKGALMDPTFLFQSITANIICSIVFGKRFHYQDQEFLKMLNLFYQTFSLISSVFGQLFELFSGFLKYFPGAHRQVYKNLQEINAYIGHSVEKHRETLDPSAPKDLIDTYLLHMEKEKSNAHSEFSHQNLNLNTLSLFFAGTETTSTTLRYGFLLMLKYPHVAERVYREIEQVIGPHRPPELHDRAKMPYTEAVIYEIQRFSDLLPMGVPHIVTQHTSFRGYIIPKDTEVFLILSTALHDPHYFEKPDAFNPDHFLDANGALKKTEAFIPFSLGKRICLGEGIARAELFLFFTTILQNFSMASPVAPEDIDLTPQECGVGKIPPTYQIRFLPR

[8] = Volume of distribution at steady state in monkey at 0.3 mg/kg, iv; format: ADME, organism-based, Macaca mulatta; conditions: rhesus monkey, in vivo, read-out: Vdss
[9] = target: CYP2D6 (Homo sapiens, UniProt P10635); experiment: Inhibition of CYP2D6 (unknown origin); format: ADME
Chain of CYP2D6 (P10635 whole entry): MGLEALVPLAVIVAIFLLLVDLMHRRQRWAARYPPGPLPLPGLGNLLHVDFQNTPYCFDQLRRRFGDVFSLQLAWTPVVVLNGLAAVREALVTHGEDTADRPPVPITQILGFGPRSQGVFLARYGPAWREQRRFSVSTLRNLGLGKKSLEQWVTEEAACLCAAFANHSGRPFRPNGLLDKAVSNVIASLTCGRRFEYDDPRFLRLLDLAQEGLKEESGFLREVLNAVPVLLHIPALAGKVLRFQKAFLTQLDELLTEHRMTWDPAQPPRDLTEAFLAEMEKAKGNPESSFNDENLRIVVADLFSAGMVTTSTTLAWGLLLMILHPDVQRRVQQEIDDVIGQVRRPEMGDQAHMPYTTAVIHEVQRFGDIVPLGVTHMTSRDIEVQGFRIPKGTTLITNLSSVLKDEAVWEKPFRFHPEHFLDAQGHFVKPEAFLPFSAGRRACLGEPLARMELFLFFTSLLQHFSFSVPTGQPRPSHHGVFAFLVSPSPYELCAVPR

[10] = AUC (0 to infinity) in monkey at 0.3 mg/kg, iv; format: ADME, organism-based, Macaca mulatta; set-up: dose 0.3 mg/kg, time infinity, route intravenous; conditions: rhesus monkey, in vivo
[11] = target: T3, CYP2A6 (Homo sapiens, UniProt P11509); experiment: Inhibition of CYP2A6 (unknown origin); format: ADME
T3 sequence (P11509 whole entry): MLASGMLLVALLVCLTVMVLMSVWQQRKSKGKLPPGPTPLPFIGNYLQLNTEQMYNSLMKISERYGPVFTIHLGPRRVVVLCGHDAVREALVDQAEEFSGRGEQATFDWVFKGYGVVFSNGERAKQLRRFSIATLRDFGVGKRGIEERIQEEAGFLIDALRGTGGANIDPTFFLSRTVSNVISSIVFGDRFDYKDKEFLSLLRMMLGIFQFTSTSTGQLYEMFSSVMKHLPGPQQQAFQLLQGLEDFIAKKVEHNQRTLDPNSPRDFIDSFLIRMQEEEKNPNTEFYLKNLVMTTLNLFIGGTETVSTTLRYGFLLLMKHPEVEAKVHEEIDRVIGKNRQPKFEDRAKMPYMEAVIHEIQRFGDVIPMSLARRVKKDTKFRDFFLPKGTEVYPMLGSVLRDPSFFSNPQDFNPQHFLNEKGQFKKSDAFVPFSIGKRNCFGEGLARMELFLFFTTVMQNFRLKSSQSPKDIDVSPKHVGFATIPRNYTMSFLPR

[12] = Tmax in monkey at 1 mg/kg, po; format: ADME, organism-based, Macaca mulatta; conditions: rhesus monkey, in vivo

- bioavailability [1]: 84.2%
- Activity [2]: inactive
- half-life [3]: 10.2 h
- AUC(0-inf) [4]: 8440 ng·h/mL
- C0 [5]: 1080 ng/mL
- IC50 [6]: > 50 µM
- IC50 [7]: > 50 µM
- Vd [8]: 0.716 L/kg
- IC50 [9]: > 50 µM
- AUC(0-inf) [10]: 987 ng·h/mL
- IC50 [11]: > 50 µM
- Tmax [12]: 1.38 h
SMILES: C[C@@H](N[C@H]1CCN(c2ccc(CC(=O)O)cc2)C1)c1cccc2ccccc12.Cl.Cl

Reference: ChEMBL document CHEMBL4118154, “Discovery of evocalcet, a next-generation calcium-sensing receptor agonist for the treatment of hyperparathyroidism” (Bioorg Med Chem Lett, 2018)
